We go through 2 compounds from article PMC5218480 (PLoS ONE, 2017).

The target of one experiment is T1, HDAC4 (Homo sapiens, UniProt P56524).
T1 construct: purchased BPS Biosciences
The experiment in a line: HDAC enzyme assay, in vitro biochemical. Particulars: maximum concentration tested of 20 μM. As to the method:
(§1) In vitro biochemical assays were performed as described previously. Specifically, compounds were dissolved and diluted in assay buffer (50 mM HEPES, pH 7.4, 100 mM KCl, 0.001% Tween-20, 0.05% BSA, and 20 μM Tris (2-carboxyethyl) phosphine) to 6-fold the final concentration. […] The amount of substrate (acetyl-lysine tripeptide) used for each enzyme was equal to the Michaelis constant (Km), as determined by a titration curve. Substrate was diluted in assay buffer to 6-fold of the final concentration with 0.3 μM sequencing grade trypsin (Sigma-Aldrich). The substrate/trypsin mix was added to the enzyme/compound mix and the plate was shaken for 5 seconds and then placed into a SpectraMax M5 microtiter (Molecular Devices) plate reader. The enzymatic reaction was monitored over 30 minutes for release of […] after deacetylation of the lysine side chain in the peptide substrate, and the linear rate of the reaction was calculated.
(§2) biochemical assay for HDAC4, HDAC5, HDAC6, HDAC7, HDAC8, HDAC9 inhibition by ACY-1035.
(§3) (1 picture or pasted object on this page, not shown here)

Another experiment deals with T2, HDAC5 (Homo sapiens, UniProt Q9UQL6).
T2 construct: purchased BPS Biosciences
Briefly: HDAC enzyme assay, in vitro biochemical. As to conditions: maximum concentration tested of 20 μM. As to the method: as §1, §2, §3

For another experiment, the target named is T3, HDAC6 (Homo sapiens, UniProt Q9UBN7).
T3 construct: purchased BPS Biosciences
T3 sequence (Q9UBN7 1-1215): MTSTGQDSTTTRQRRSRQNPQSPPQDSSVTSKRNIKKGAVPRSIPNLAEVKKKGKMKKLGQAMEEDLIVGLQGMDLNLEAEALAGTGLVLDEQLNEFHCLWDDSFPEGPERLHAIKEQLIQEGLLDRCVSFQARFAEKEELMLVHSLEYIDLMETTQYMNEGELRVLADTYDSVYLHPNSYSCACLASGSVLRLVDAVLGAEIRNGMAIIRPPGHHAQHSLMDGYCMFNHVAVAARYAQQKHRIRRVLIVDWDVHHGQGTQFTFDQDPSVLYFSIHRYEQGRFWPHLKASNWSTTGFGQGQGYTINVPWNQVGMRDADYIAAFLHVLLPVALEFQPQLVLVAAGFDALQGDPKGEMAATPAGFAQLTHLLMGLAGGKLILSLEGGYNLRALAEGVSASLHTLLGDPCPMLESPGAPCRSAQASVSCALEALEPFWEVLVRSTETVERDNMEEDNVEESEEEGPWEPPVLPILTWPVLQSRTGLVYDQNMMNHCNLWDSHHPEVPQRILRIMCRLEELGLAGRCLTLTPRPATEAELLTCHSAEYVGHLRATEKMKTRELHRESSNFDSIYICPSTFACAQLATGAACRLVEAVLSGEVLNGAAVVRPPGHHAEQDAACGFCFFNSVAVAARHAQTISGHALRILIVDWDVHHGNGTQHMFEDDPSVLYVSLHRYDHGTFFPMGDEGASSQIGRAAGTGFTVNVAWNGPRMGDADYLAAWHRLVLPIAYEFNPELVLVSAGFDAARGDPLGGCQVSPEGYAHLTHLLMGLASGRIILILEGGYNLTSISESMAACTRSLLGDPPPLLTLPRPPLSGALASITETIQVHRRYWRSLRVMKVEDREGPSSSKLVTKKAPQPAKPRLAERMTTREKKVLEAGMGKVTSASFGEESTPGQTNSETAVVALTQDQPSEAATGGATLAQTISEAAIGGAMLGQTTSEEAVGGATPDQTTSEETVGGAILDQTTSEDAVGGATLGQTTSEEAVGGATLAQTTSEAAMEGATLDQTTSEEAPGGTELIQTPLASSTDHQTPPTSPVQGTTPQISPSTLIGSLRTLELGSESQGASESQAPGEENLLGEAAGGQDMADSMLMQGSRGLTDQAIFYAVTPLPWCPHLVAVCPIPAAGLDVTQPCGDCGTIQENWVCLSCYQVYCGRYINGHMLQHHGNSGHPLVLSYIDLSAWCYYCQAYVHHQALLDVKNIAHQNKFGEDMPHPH
Briefly: HDAC enzyme assay, in vitro biochemical. As to conditions: maximum concentration tested of 20 μM. The method, then:
as §1, §2, §3

Experiment [1] deals with MV-4-11, Kasumi-1 and HL-60 cell lines. The experiment in a line: Histone acetylation by immunoblotting. Type of experiment: cell-based, human. Particulars: 24 hours, increasing doses. From the text:
The EpiQuick Total Histone Extraction kit (Epigentek) was used to isolate histones. Histone lysates were size separated on Bolt 10% Bis-Tris gradient gels (Life Technologies), transferred to polyvinylidene difluoride membranes, blocked in 5% BSA, and detected using standard western blotting techniques.

Experiment [2] relates to MV-4-11 and HL-60 cells. The experiment in a line: Flow cytometry, cell cycle (EdU, S phase). Type of experiment: cell-based, human. Particulars: single agent, 72 hours. The method, then:
(§4) All compounds and/or solvent DMSO were added concurrently at the indicated doses. Flow cytometry was performed to measure surface level of CD11b, cell cycle distribution, and induction of apoptosis. CD11b and apoptosis were analyzed on a FC500 flow cytometer ([…]) and cell cycle profiled on an Attune NxT (Life Technologies).
EdU labeled cells were then mixed with FxCycle Far Red Stain (Life Technologies) and 100 μg RNase A cocktail (Life technologies) for 30 minutes before flow cytometry analysis. Edu positive populations representing S phase cells were quantified.

The test system of experiment [3] is MV-4-11 and HL-60 cells. The experiment in a line: Flow cytometry, apoptosis (Annexin V). As to conditions: single agent, 96 hours. Type of experiment: cell-based, human. As to the method: as §4
Annexin V-positive populations were quantified.

Another experiment concerns Kasumi-1 cells. The experiment in a line: Cell viability assay (CellTiter-Glo). Particulars: read-out: IC50 cell viability Kasumi-1; 72 hours.
Another experiment concerns NB-4 cells. The experiment in a line: Cell viability assay (CellTiter-Glo). Particulars: read-out: IC50 cell viability NB-4; 72 hours.
Another experiment deals with MOLM-13 cells. Briefly: Cell viability assay (CellTiter-Glo), single agent and combination. As to conditions: read-out: IC50 cell viability MOLM-13; 72 hours.
The subject of another experiment is MOLM-13 xenograft. Briefly: In vivo model of AML: MOLM-13 xenograft, time to endpoint (TTE) and survival.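 On all read-outs here: female Crl:NU(NCr)-Foxn1^nu mice bearing subcutaneous flank MOLM-13 tumors, caliper-measured twice per week, volume as width^2 × length/2, endpoint reached at 2000 mm^3 tumor volume.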 As to conditions: Azacitidine 5.5 mg/kg, iv, bi-weekly; for Tumor volume: individual animal.

Values joined by “and” are separate entries in the source; they are usually repeats but may differ in a detail not shown here. Identical values can stand only once.

T1 sequence (P56524 whole entry): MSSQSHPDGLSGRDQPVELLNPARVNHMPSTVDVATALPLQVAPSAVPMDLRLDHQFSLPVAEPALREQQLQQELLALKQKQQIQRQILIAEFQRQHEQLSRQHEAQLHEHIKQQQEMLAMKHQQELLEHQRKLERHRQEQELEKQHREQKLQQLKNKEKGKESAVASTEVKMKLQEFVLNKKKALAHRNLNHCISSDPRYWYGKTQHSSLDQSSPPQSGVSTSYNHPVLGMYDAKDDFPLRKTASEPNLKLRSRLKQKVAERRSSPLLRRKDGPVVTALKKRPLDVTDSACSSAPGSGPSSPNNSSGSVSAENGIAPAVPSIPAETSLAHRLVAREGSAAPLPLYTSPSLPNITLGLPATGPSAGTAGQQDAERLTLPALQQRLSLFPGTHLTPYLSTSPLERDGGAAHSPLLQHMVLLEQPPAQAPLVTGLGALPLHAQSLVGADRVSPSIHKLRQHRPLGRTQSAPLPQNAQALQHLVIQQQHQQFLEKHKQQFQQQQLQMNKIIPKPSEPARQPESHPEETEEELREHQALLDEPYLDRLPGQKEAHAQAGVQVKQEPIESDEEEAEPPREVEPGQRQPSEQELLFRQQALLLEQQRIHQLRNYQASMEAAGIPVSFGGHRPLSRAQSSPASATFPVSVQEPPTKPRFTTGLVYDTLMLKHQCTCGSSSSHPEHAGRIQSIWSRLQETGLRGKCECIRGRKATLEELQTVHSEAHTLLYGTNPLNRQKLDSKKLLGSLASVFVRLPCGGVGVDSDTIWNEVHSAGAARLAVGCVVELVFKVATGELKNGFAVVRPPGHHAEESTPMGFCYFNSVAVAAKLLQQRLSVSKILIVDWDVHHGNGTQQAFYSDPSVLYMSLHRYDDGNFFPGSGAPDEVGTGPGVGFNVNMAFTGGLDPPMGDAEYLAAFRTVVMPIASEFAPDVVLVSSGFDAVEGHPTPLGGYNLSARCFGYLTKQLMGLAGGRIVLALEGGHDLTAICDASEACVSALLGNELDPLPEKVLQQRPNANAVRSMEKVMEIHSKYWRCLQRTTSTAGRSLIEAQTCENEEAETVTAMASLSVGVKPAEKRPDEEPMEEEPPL
T2 sequence (Q9UQL6 whole entry): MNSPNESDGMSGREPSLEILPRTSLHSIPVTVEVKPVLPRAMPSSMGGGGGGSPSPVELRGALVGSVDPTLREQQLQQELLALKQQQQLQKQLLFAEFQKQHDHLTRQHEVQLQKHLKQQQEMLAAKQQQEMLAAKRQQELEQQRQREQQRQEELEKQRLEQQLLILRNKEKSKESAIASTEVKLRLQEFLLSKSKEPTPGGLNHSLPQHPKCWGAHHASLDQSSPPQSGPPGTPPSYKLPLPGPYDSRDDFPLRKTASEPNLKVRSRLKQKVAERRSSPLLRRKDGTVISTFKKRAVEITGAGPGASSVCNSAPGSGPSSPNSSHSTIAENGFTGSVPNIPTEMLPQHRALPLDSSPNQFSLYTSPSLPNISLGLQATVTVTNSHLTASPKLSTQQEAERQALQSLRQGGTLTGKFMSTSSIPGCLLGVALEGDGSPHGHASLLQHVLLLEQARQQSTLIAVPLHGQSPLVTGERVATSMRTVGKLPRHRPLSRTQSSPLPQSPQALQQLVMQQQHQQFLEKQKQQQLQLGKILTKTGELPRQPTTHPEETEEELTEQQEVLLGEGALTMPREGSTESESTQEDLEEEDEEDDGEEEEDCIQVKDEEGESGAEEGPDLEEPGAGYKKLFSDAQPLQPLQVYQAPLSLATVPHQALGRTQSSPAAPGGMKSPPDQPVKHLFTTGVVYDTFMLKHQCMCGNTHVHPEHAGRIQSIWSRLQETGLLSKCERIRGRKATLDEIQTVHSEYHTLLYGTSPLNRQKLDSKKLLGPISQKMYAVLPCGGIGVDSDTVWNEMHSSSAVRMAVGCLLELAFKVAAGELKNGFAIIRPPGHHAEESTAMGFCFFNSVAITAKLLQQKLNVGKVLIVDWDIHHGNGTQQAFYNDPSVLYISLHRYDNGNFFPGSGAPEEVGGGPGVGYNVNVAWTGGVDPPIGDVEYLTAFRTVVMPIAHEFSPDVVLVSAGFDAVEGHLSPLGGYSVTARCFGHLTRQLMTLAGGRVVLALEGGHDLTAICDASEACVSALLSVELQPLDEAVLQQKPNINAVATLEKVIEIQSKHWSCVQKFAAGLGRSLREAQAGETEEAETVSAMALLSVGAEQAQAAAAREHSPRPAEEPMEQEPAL
Protocol for Kasumi-1 cells: (§5) MV-4-11, Kasumi-1, and HL-60 AML cell lines were all obtained from ATCC. MOLM-13 and NB-4 cell lines were obtained from DSMZ. […] The identity of each cell line was validated and documented by the suppliers. All experiments were performed with cells maintained at low passage numbers.
(§6) Compounds and/or solvent dimethyl sulfoxide (DMSO) were added at the same time using an HP D300 digital dispenser (Hewlett Packard) in triplicate or quadruplicate and incubated for 72 hours at 37°C. Viability was measured by adding 25 μL CellTiter-Glo (Promega), incubating for 10 minutes, and measuring luminescence on a SpectraMax (Molecular Devices). […] CI < 1 indicates synergism, CI = 1 indicates additivity, and CI > 1 indicates antagonism.
Protocol for MOLM-13 cells: as §5, §6
Protocol for NB-4 cells: as §5
Compounds and/or solvent dimethyl sulfoxide (DMSO) were added at the same time using an HP D300 digital dispenser (Hewlett Packard) in triplicate or quadruplicate and incubated for 72 hours at 37°C. Viability was measured by adding 25 μL CellTiter-Glo (Promega), incubating for 10 minutes, and measuring luminescence on a SpectraMax (Molecular Devices).

In the case of `Nc1ccc(-c2cccs2)cc1NC(=O)c1ccc2c(c1)cc(C1CC1)n2CCN1CCOCC1` [ACY-1035], at HDAC4, the “inhibition of HDAC4” value was “did not inhibit”. Moreover, on HDAC5, the “inhibition of HDAC5” value is on record as “did not inhibit”. Further, the “inhibition of HDAC6” value against HDAC6 is “did not inhibit”. Besides, the “acetylation on histone H2B lysine 5 (H2BK5ac) and histone H3 lysine 56 (H3K56ac)” value in [1] is on record as “dose-dependent accumulation”. Further, the “cells in S phase” value in the experiment with MV-4-11 and HL-60 cells [2] was “dose-dependent reduction of cells in S phase”. Moreover, the “apoptosis, staining for annexin V” value with MV-4-11 and HL-60 cells [3] is given as “increased staining for annexin V”. The IC50 in the experiment on Kasumi-1 cells was found to be 2600 nM; with NB-4 cells, 2800 nM; in the experiment with MOLM-13 cells, 2900 nM.

`Nc1ncn([C@@H]2O[C@H](CO)[C@@H](O)[C@H]2O)c(=O)n1` [azacitidine]: the TTE in the experiment on MOLM-13 xenograft (TTE for individual animal) is 14.4 and 17 and 17.1 and 17.2 and 17.4 and 17.6 and 17.7. For the same compound, the Tumor volume was 108 mm3 and 126 mm3 and 144 mm3 and 172 mm3 in the experiment with MOLM-13 xenograft (day of study 1); 172 mm3 and 126 mm3 and 245 mm3 and 196 mm3 and 365 mm3 and 256 mm3 in the experiment on MOLM-13 xenograft (day of study 5); 500 mm3 and 365 mm3 and 405 mm3 and 700 mm3 and 288 mm3 and 650 mm3 and 726 mm3 and 550 mm3 with MOLM-13 xenograft (day of study 8); 1470 mm3 and 936 mm3 and 1183 mm3 and 1862 mm3 and 787 mm3 and 1080 mm3 and 1008 mm3 and 1152 mm3 and 1666 mm3 with MOLM-13 xenograft (day of study 12); 1913 mm3 and 1568 mm3 and 2025 mm3 and 2816 mm3 and 1268 mm3 and 1666 mm3 and 1764 mm3 and 3240 mm3 with MOLM-13 xenograft (day of study 15); 2025 mm3 and 2432 mm3 and 2176 mm3 and 2138 mm3 and 2250 mm3 in the experiment with MOLM-13 xenograft (day of study 19).
